Data: patent US20260158020A1, “COMPOSITIONS AND USES THEREOF” (BENEVOLENTAI CAMBRIDGE LIMITED, priority 2020, published 2026)
pIC50, pKd: −log10 of the molar value. Read-outs that look alike come from different tables or passages of the source.

Assays:
[1] = cited from earlier work
other PDE family members [2] = details: cited from earlier work
[3] = system: animals, conditioned avoidance response model; details: cited from earlier work
PDE10A [4] = target: T1, PDE10A (Homo sapiens, UniProt Q9Y233); details: read-out: binding affinity (Kd) PDE10A; cited from earlier work
PDE10A [5] = target: T1, PDE10A; details: cited from earlier work
[6] = system: rat models relevant to schizophrenia; details: 0.1-0.3 mg/kg; cited from earlier work
rat PDE10 = target: T2, rat PDE10 (Rattus norvegicus, UniProt Q9QYJ6); details: cited from earlier work
T2 sequence (Q9QYJ6 1-794): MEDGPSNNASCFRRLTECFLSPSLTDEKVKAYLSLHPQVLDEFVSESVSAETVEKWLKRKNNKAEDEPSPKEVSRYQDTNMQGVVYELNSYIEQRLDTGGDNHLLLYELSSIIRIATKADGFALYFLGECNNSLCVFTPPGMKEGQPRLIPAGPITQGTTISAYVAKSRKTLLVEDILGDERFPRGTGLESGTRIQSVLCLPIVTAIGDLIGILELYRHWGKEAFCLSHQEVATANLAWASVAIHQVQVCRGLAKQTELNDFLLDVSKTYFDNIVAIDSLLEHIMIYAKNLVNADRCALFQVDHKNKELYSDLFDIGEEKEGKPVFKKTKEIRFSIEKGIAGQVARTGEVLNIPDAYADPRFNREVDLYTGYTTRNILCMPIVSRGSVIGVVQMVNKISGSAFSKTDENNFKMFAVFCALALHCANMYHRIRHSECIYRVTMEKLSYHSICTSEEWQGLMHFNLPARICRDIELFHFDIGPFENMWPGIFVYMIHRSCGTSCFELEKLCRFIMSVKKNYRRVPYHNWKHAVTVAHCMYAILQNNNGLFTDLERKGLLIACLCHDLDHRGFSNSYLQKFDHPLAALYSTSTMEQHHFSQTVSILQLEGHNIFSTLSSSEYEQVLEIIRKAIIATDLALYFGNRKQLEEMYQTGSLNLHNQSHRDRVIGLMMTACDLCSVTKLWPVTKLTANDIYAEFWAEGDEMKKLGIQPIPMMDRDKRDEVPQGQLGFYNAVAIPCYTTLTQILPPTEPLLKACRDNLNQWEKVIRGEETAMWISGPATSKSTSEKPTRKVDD

[7] = system: rat models relevant to schizophrenia; details: 0.1-0.3 mg/kg; cited from earlier work; remark: listed apart in the source
human PDE10 = human PDE10 (Homo sapiens, UniProt Q9Y233); details: cited from earlier work
[8] = system: inflamed colonic mucosa from treatment-refractory ulcerative colitis patients; test: Ex-vivo culture of inflamed colon tissue from surgical resection of treatment-refractory UC patients, TNFα release (Method 2); type: cell-based, human; details: colon samples from two treatment-refractory UC patients, with SEB, about 18 h, vs DMSO vehicle; printed 1 M (FIG. 6: 1 μM)
[9] = system: isolated human neutrophils; test: In vitro assay of IL-8 neutrophil activation; type: cell-based; details: FIG. 3
[10] = system: inflamed colonic mucosa from ulcerative colitis patients; test: Ex-vivo culture of colon biopsies from ulcerative colitis patients, cytokine release (Method 1); type: cell-based, human; details: colon biopsy samples from two UC patients, vs DMSO vehicle, PF-02545920 0.1 and 1 μM, TAK-063 1 μM, FIGS. 4 and 5
Description: The effect of selective PDE10 inhibition was tested on inflamed colonic mucosa from ulcerative colitis patients taken during routine endoscopy (Method 1 detailed below). These samples retain a disease phenotype in ex-vivo culture and secrete high basal levels of inflammatory cytokines. The effect of selective PDE10 inhibition on levels of the inflammatory cytokines IL-8 and IL-6 released from these tissue samples was measured.
These colon biopsies retain an inflammatory phenotype and secrete high levels of inflammatory cytokines in ex-vivo culture. […] The doses tested of each inhibitor will result in selective PDE10A inhibition over the other PDE family members.
Biopsy tissue was obtained from inflamed colonic mucosa from ulcerative colitis patients during routine endoscopy. Ex-vivo biopsy cultures for the analysis of inflammatory cytokine biomarkers were run as previously described (Vossenkämper A. et al. A CD3-specific antibody reduces cytokine production and alters phosphoprotein profiles in intestinal tissues from patients with inflammatory bowel disease. Gastroenterology, 2014, 147, 172-183). […] Supernatants collected at the end of the experiment were snap-frozen and stored at −70° C. For the measurement of cytokines, the frozen culture supernatants were thawed and analysed for levels of the inflammatory cytokines using Luminex cytokine assay kits (R&D Systems) and an R&D Systems MAGPIX® analyser. Mean values±SDs were calculated for the levels of spontaneous cytokine production measured in biopsy culture supernatants from each treatment group.

other PDE family members [11] = system: T3, other PDE family members; details: isolated enzyme biochemical assays; literature (Grauer 2009; Kunitomo 2014); read-out: IC50s for other PDE family members; cited from earlier work
T3 construct: other: isolated enzyme biochemical assays; literature (Grauer 2009; Kunitomo 2014)

[12] = oral, rodents; cited from earlier work
rats = details: cited from earlier work
[13] = system: rodents with induced memory deficits; details: oral, 0.1 to 3 mg/kg; cited from earlier work

T1 sequence (Q9Y233 whole entry): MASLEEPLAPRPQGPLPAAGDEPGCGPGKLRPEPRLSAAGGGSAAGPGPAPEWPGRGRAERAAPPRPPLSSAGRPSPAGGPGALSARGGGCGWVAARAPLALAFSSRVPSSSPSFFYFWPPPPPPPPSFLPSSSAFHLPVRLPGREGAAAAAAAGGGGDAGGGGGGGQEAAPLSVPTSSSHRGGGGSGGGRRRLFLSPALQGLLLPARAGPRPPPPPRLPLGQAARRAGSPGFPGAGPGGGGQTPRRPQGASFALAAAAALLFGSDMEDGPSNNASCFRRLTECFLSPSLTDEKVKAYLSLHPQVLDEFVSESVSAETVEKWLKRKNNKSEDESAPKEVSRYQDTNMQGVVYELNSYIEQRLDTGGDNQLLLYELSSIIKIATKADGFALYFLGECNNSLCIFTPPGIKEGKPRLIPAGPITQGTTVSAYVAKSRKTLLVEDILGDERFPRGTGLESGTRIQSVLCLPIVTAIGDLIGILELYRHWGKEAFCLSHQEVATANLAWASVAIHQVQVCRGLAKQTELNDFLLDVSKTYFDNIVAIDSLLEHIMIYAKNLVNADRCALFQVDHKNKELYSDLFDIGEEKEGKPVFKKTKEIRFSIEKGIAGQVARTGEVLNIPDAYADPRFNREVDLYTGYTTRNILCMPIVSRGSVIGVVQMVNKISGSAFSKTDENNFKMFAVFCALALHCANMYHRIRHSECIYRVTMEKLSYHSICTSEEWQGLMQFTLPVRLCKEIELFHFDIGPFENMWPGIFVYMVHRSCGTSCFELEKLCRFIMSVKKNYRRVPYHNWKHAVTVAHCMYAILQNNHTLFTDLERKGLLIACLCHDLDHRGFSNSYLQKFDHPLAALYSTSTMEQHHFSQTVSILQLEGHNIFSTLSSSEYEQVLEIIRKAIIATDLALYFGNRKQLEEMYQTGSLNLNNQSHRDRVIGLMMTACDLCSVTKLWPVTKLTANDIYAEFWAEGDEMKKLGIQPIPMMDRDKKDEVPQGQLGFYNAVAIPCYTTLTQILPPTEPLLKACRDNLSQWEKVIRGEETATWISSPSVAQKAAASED
Sequence of human PDE10 (Q9Y233 whole entry): as above

For `CC(=O)N1CCC(c2nccnc2Oc2ccc(C(=O)c3nc4ccccc4[nH]3)cc2)CC1` [AMG-579, 1-[4-[3-[4-(1H-benzimidazole-2-carbonyl)phenoxy]pyrazin-2-yl]piperidin-1-yl]ethanone], the oral bioavailability [1] is given as “orally bioavailable” and the pIC50 (other PDE family members [2]; read-out: IC50 against all other PDE isoforms) is given as < 4.52.
For `CCNC(=O)c1sc(Nc2nc(Cl)cc(NCc3cccnc3)n2)nc1C` [BMS-843496, 2-((4-chloro-6-((pyridin-3-ylmethyl)amino)pyrimidin-2-yl)amino)-N-ethyl-4-methylthiazole-5-carboxamide], the “antipsychotic effects, conditioned avoidance response model” value [3] is listed as “correlated with antipsychotic effects”, the “selectivity over other PDE families / family members / phosphodiesterases” value (other PDE family members [2]) is listed as > 100 fold and the pKd (PDE10A [4]) is listed as 9.82. For the same compound, the pIC50 (PDE10A [5]) was 8.68.
For `Cc1ncc(C)n2nc(/C=C/c3nc(N4CCCC4)cc(N4CCOCC4)n3)nc12` [PDM-042, (E)-4-(2-(2-(5,8-dimethyl-[1,2,4]triazolo[1,5-a]pyrazin-2-yl)vinyl)-6-(pyrrolidin-1-yl)pyrimidin-4-yl) morpholine], the “selectivity over other PDE families / family members / phosphodiesterases” value (other PDE family members [2]) is listed as “more than 1000 fold”, the MK-801-induced hyperlocomotion [6] is listed as “significantly antagonized” and the spontaneous locomotor activity [6] is listed as “without affecting”. The pIC50 (rat PDE10) was > 9.00, the conditioned avoidance response [7] was “attenuated” and the pIC50 (human PDE10) was > 9.00.
With `Cn1cc(-c2ccncc2)c(-c2ccc(OCc3ccc4ccccc4n3)cc2)n1` [PF-02545920, 2-[[4-(1-methyl-4-pyridin-4-ylpyrazol-3-yl)phenoxy]methyl]quinolone] the “secreted levels of TNFα” value [8] was “significantly reduced”, the “IL-8 induced neutrophil activation” value [9] was “dose dependently inhibited” and the “secreted levels of IL-6” value [10] was “significantly reduced”. The “secreted levels of IL-8” value [10] was “significantly reduced” and the pIC50 (other PDE family members [11]) was < 6.00.
For `COc1cc2ncnc(N3CC[C@@H](Oc4cnc5ccccc5n4)C3)c2cc1OC` [PQ-10, 6,7-dimethoxy-4-[(3R)-3-quinoxalin-2-yloxypyrrolidin-1-yl]quinazoline], the brain penetration [12] is given as “highly brain penetrant”, the “basic auditory information processing” value (rats) is given as “enhances” and the induced memory defects [13] is given as “reversed”.
For `COc1cn(-c2ccc(-n3cccn3)cc2F)nc(-c2ccnn2-c2ccccc2)c1=O` [TAK-063, 1-(2-fluoro-4-pyrazol-1-ylphenyl)-5-methoxy-3-(2-phenylpyrazol-3-yl)pyridazin-4-one], the “secreted levels of IL-6” value [10] is given as “significantly reduced”, the “secreted levels of IL-8” value [10] is given as “significantly reduced” and the pIC50 (other PDE family members [11]) is given as < 5.30.
